The source of these data is patent US8455658B2, “Thiazole and thiadiazole compounds for inflammation and immune-related uses” (Synta Pharmaceuticals Corp., priority 2006, dated 2013).

For the test, the system named is IL-2 production. Put plainly: Inhibition of IL-2 production in PHA-activated Jurkat cells (ELISA). It is filed as cell-based. The note with it: Homo sapiens, Jurkat, 20 h, PHA 2.5 μg/mL, IL-2 ELISA. How it is done: Jurkat cells were placed in a 96 well plate (0.5 million cells per well in 1% FBS medium) then a test compound of this invention was added at different concentrations. After 10 minutes, the cells were activated with PHA (final concentration 2.5 μg/mL) and incubated for 20 hours at 37° C. under CO2. The final volume was 200 μL. Following incubation, the cells were centrifuged and the supernatants collected and stored at −70° C. prior to assaying for IL-2 production. A commercial ELISA kit (IL-2 Eli-pair, Diaclone Research, Besancon, France) was used to detect production of IL-2, from which dose response curves were obtained.

Where a name gives a salt, the structure may show the parent alone.

On to `O=C(Nc1nc(C2=NCCN2)c(-c2cccc(C(F)(F)F)c2)s1)c1c(F)cccc1F` [Compound 77, N-(4-(4,5-Dihydro-1H-imidazol-2-yl)-5-(3-(trifluoromethyl)phenyl)thiazol-2-yl)-2,6-difluorobenzamide], for which the half-inhibitory concentration (IC50) was more than 1000 nM.
To `O=C(Nc1nc(-c2ncc[nH]2)c(-c2cccc(C(F)(F)F)c2)s1)c1c(F)cccc1F` [Compound 78, N-(4-(1H-Imidazol-2-yl)-5-(3-(trifluoromethyl)phenyl)thiazol-2-yl)-2,6-difluorobenzamide hydrochloride] belongs more than 1000 nM; to `Cn1cncc1-c1nc(NC(=O)c2c(F)cccc2F)sc1-c1cccc(C(F)(F)F)c1` [Compound 80, 2,6-Difluoro-N-(4-(1-methyl-1H-imidazol-5-yl)-5-(3-(trifluoromethyl)phenyl)thiazol-2-yl)benzamide], more than 1000 nM; to `Cc1nc(C)c(-c2nc(NC(=O)c3c(F)cccc3F)sc2-c2cccc(C(F)(F)F)c2)o1` [Compound 81, N-(4-(2,4-dimethyloxazol-5-yl)-5-(3-(trifluoromethyl)phenyl)thiazol-2-yl)-2,6-difluorobenzamide], more than 1000 nM.
Compound `O=C(Nc1nc(C(O)c2ccccn2)c(-c2cccc(C(F)(F)F)c2)s1)c1c(F)cccc1F` (stereo not drawn) [Compound 83, 2,6-difluoro-N-(4-(hydroxy(pyridin-2-yl)methyl)-5-(3-(trifluoromethyl)phenyl)thiazol-2-yl)benzamide] returned a 50% inhibitory concentration (IC50) of more than 1000 nM.
The same measure for `CC(=O)c1nc(NC(=O)c2c(F)cccc2F)sc1-c1cccc(C(F)(F)F)c1` [Compound 84, N-(4-Acetyl-5-(3-(trifluoromethyl)phenyl)thiazol-2-yl)-2,6-difluorobenzamide]: 200 to 500 nM; for `Cc1nc(-c2nc(NC(=O)c3c(F)cccc3F)sc2-c2cccc(C(F)(F)F)c2)cs1` [Compound 86, 2,6-Difluoro-N-(2′-methyl-5-(3-(trifluoromethyl)phenyl)-4,4′-bithiazol-2-yl)benzamide]: 200 to 500 nM; for `Nc1nc(-c2nc(NC(=O)c3c(F)cccc3F)sc2-c2cccc(C(F)(F)F)c2)cs1` [Compound 87, N-(2′-amino-5-(3-(trifluoromethyl)phenyl)-4,4′-bithiazol-2-yl)-2,6-difluorobenzamide]: more than 1000 nM.
Compound `O=C(Nc1nc(C2=NCCO2)c(-c2cccc(C(F)(F)F)c2)s1)c1c(F)cccc1F` [Compound 89, N-(4-(4,5-dihydrooxazol-2-yl)-5-(3-(trifluoromethyl)phenyl)thiazol-2-yl)-2,6-difluorobenzamide] gave an IC50 of 200 to 500 nM.
With `O=C(Nc1nc(-c2nnco2)c(-c2cccc(C(F)(F)F)c2)s1)c1c(F)cccc1F` [Compound 90, N-(4-(1,3,4-oxadiazol-2-yl)-5-(3-(trifluoromethyl)phenyl)thiazol-2-yl)-2,6-difluorobenzamide], the IC50 lay within 200 to 500 nM.
`O=C(Nc1nc(-c2ncco2)c(-c2cccc(C(F)(F)F)c2)s1)c1c(F)cccc1F` [Compound 91, 2,6-difluoro-N-(4-(oxazol-2-yl)-5-(3-(trifluoromethyl)phenyl)thiazol-2-yl)benzamide] had an IC50 of 50 to 100 nM.
In turn, `Cc1noc(-c2nc(NC(=O)c3c(F)cccc3F)sc2-c2cccc(C(F)(F)F)c2)n1` [Compound 92, 2,6-difluoro-N-(4-(3-methyl-1,2,4-oxadiazol-5-yl)-5-(3-(trifluoromethyl)phenyl)thiazol-2-yl)benzamide] returned a half-maximal inhibitory concentration (IC50) of 200 to 500 nM.
To `CON(C)C(=O)c1nc(NC(=O)c2c(F)cccc2F)sc1-c1cccc(C(F)(F)F)c1` [Compound 93, 2-(2,6-difluorobenzamido)-N-methoxy-N-methyl-5-(3-(trifluoromethyl)phenyl)thiazole-4-carboxamide] belongs more than 1000 nM; to `CCC(=O)c1nc(NC(=O)c2c(F)cccc2F)sc1-c1cccc(C(F)(F)F)c1` [Compound 94, 2,6-difluoro-N-(4-propionyl-5-(3-(trifluoromethyl)phenyl)thiazol-2-yl)benzamide], 50 to 100 nM.
To `Cc1nc(-c2nc(NC(=O)c3c(F)cccc3F)sc2-c2cccc(C(F)(F)F)c2)c(C)s1` [Compound 95, N-(2′,5′-dimethyl-5-(3-(trifluoromethyl)phenyl)-4,4′-bithiazol-2-yl)-2,6-difluorobenzamide] belongs more than 1000 nM.
To `CCOC(=O)c1nc(-c2nc(NC(=O)c3c(F)cccc3F)sc2-c2cccc(C(F)(F)F)c2)c(C)s1` [Compound 96, Ethyl 2′-(2,6-difluorobenzamido)-5-methyl-5′-(3-(trifluoromethyl)phenyl)-4,4′-bithiazole-2-carboxylate] belongs more than 1000 nM.
As to `NC(=O)c1nc(NC(=O)c2c(F)cccc2F)sc1-c1cccc(C(F)(F)F)c1` [Compound 97, 2-(2,6-Difluorobenzamido)-5-(3-(trifluoromethyl)phenyl)thiazole-4-carboxamide], the half-maximal inhibitory concentration (IC50) was more than 1000 nM.
For `CCOC(CNC(=O)c1nc(NC(=O)c2c(F)cccc2F)sc1-c1cccc(C(F)(F)F)c1)OCC` [Compound 98, N-(2,2-diethoxyethyl)-2-(2,6-difluorobenzamido)-5-(3-(trifluoromethyl)phenyl)thiazole-4-carboxamide], the half-maximal inhibitory concentration (IC50) is more than 1000 nM.
For the compound `O=C(Nc1nc(-c2cc[nH]n2)c(-c2cccc(C(F)(F)F)c2)s1)c1c(F)cccc1F` [Compound 100, N-(4-(1H-Pyrazol-3-yl)-5-(3-(trifluoromethyl)phenyl)thiazol-2-yl)-2,6-difluorobenzamide], the concentration for half-maximal inhibition (IC50) fell in the range of 200 to 500 nM.
To `O=C(Nc1nc(Cl)c(-c2cccc(C(F)(F)F)c2)s1)c1c(F)cccc1F` [Compound 103, N-(4-Chloro-5-(3-(trifluoromethyl)phenyl)thiazol-2-yl)-2,6-difluorobenzamide] belongs 200 to 500 nM; to `O=C(Nc1nc(-c2ccon2)c(-c2cccc(C(F)(F)F)c2)s1)c1c(F)cccc1F` [Compound 106, 2,6-Difluoro-N-(4-(isoxazol-3-yl)-5-(3-(trifluoromethyl)phenyl)thiazol-2-yl)benzamide], 100 to 200 nM; to `O=C(Nc1nc(-c2ccccn2)c(-c2cccc(C(F)(F)F)c2)s1)c1c(F)cccc1F` [Compound 107, 2,6-Difluoro-N-(4-(pyridin-2-yl)-5-(3-(trifluoromethyl)phenyl)thiazol-2-yl)benzamide], less than 30 nM.
`COc1ccc(-c2nc(NC(=O)c3c(F)cccc3F)sc2-c2cccc(C(F)(F)F)c2)cc1OC` [Compound 109, N-(4-(3,4-Dimethoxyphenyl)-5-(3-(trifluoromethyl)phenyl)thiazol-2-yl)-2,6-difluorobenzamide] showed an IC50 of more than 1000 nM.
Consider `CN(C)c1ccc(-c2nc(NC(=O)c3c(F)cccc3F)sc2-c2cccc(C(F)(F)F)c2)cc1` [Compound 110, N-(4-(4-(Dimethylamino)phenyl)-5-(3-(trifluoromethyl)phenyl)thiazol-2-yl)-2,6-difluorobenzamide], for which the 50% inhibitory concentration (IC50) is more than 1000 nM.
Turning to `Cc1cnccc1C(=O)Nc1nc(C(=O)O)c(-c2cccc(C(F)(F)F)c2)s1` [Compound 112, 2-(3-Methylisonicotinamido)-5-(3-(trifluoromethyl)phenyl)thiazole-4-carboxylic acid], the concentration for half-maximal inhibition (IC50) is more than 1000 nM.
To `COC(=O)c1cccc(-c2sc(NC(=O)c3c(F)cccc3F)nc2C(=O)OC)c1` [Compound 114, Methyl 2-(2,6-difluorobenzamido)-5-(3-(methoxycarbonyl)phenyl)thiazole-4-carboxylate] belongs more than 1000 nM; to `CCOC(=O)c1nc(-c2sc(NC(=O)c3c(F)cccc3F)nc2C)cs1` [Compound 114a, Ethyl 2′-(2,6-difluorobenzamido)-4′-methyl-4,5′-bithiazole-2-carboxylate], more than 1000 nM.
Regarding `Cc1nc(-c2sc(NC(=O)c3c(F)cccc3F)nc2C)cs1` [Compound 114b, N-(2,4′-Dimethyl-4,5′-bithiazol-2′-yl)-2,6-difluorobenzamide], the half-maximal inhibitory concentration (IC50) was more than 1000 nM.
In turn, `Cc1nc(C(=O)Nc2c(F)cccc2F)sc1-c1cccc(-c2ncco2)c1` [Compound 116, N-(2,6-difluorophenyl)-4-methyl-5-(3-(oxazol-2-yl)phenyl)thiazole-2-carboxamide] registered a half-maximal inhibitory concentration (IC50) of 50 to 100 nM.
For `COC(=O)c1cccc(-c2sc(C(=O)Nc3c(F)cccc3F)nc2C)c1` [Compound 117, methyl 3-(2-(2,6-difluorophenylcarbamoyl)-4-methylthiazol-5-yl)benzoate], the IC50 was in the range of 100 to 200 nM.
With `Cc1nc(C(=O)Nc2c(F)cccc2F)sc1-c1cccc(-c2nnco2)c1` [Compound 118, 5-(3-(1,3,4-oxadiazol-2-yl)phenyl)-N-(2,6-difluorophenyl)-4-methylthiazole-2-carboxamide], the IC50 was in the range of 200 to 500 nM.
`Cc1nc(C(=O)Nc2c(F)cccc2F)sc1-c1cc(C(F)(F)F)ccc1Cl` [Compound 119, 5-(2-chloro-5-(trifluoromethyl)phenyl)-N-(2,6-difluorophenyl)-4-methylthiazole-2-carboxamide] displayed a 50% inhibitory concentration (IC50) of 200 to 500 nM.
`Cc1cnccc1NC(=O)c1nc(C)c(-c2cccc(C(F)(F)F)c2)s1` [Compound 120, 4-methyl-N-(3-methylpyridin-4-yl)-5-(3-(trifluoromethyl)phenyl)thiazole-2-carboxamide] gave an IC50 of more than 1000 nM.
`Cc1ccc(-c2ncco2)cc1-c1ncc(C(=O)Nc2c(F)cccc2F)s1` [Compound 121, N-(2,6-difluorophenyl)-2-(2-methyl-5-(oxazol-2-yl)phenyl)thiazole-5-carboxamide]: the 50% inhibitory concentration (IC50) fell in the range of 100 to 200 nM.
In the case of `Cc1ccc(-c2nccs2)cc1-c1ncc(C(=O)Nc2c(F)cccc2F)s1` [Compound 122, N-(2,6-difluorophenyl)-2-(2-methyl-5-(thiazol-2-yl)phenyl)thiazole-5-carboxamide], the half-inhibitory concentration (IC50) was 30 to 50 nM.
`O=C(Nc1c(F)cccc1F)c1cnc(-c2cccc(C(F)(F)F)c2)s1` [Compound 123, N-(2,6-difluorophenyl)-2-(3-(trifluoromethyl)phenyl)thiazole-5-carboxamide]: the IC50 is more than 1000 nM.
